Experimental data published in patent publication US6461545B1, “Method of solubilizing and encapsulating itraconazole” (Emisphere Technologies, Inc., priority 1995, dated 2002).

What was measured:
[1] = Solubilization of itraconazole in aqueous acetic acid solutions, visually monitored for dissolution (Example 1); format: physicochemical; details: 100 mg itraconazole
Protocol: Acetic acid solutions were prepared in water to 10%, 20%, 50% and 75% concentrations (expressed as volume glacial acetic acid/total volume of solution ×100). 100 mg itraconazole solute were then mixed independently with 1 ml of each solution and visually monitored for dissolution. If necessary, additional 1 ml aliquots of each acetic acid solution were added until the itraconazole solute was dissolved.

[2] = cited from earlier work

- Solubility ([1]; 10% acetic acid v:v, 1 ml solvent, cold): Ins.
- Solubility ([1]; 10% acetic acid v:v, 1 ml solvent, hot): Ins.
- Solubility ([1]; 10% acetic acid v:v, 2 ml solvent, cold): Ins.
- Solubility ([1]; 10% acetic acid v:v, 2 ml solvent, hot): Ins.
- Solubility ([1]; 10% acetic acid v:v, 3 ml solvent, cold): Ins.
- Solubility ([1]; 10% acetic acid v:v, 3 ml solvent, hot): Ins.
- Solubility ([1]; 10% acetic acid v:v, 4 ml solvent, hot): Ins.
- Solubility ([1]; 20% acetic acid v:v, 1 ml solvent, cold): Ins.
- Solubility ([1]; 20% acetic acid v:v, 1 ml solvent, hot): Ins.
- Solubility ([1]; 20% acetic acid v:v, 2 ml solvent, cold): Ins.
- Solubility ([1]; 20% acetic acid v:v, 2 ml solvent, hot): Ins.
- Solubility ([1]; 20% acetic acid v:v, 3 ml solvent, cold): Ins.
- Solubility ([1]; 20% acetic acid v:v, 3 ml solvent, hot): Part
- Solubility ([1]; 50% acetic acid v:v, 1 ml solvent, cold): Ins.
- Solubility ([1]; 50% acetic acid v:v, 1 ml solvent, hot): Ins.
- Solubility ([1]; 50% acetic acid v:v, 2 ml solvent, cold): Ins.
- Solubility ([1]; 50% acetic acid v:v, 2 ml solvent, hot): Sol.
- Solubility ([1]; 50% acetic acid v:v, 3 ml solvent, cold): Ins.
- Solubility ([1]; 75% acetic acid v:v, 1 ml solvent, cold): Sol.
Structure (SMILES): CCC(C)n1ncn(-c2ccc(N3CCN(c4ccc(OCC5COC(Cn6cncn6)(c6ccc(Cl)cc6Cl)O5)cc4)CC3)cc2)c1=O (racemic) [itraconazole]
- solubility in water [2]: less than 0.00001 g/ml
